We go through 22 molecules from patent US20120245344A1 (NIPPON CHEMIPHAR CO., LTD., priority 2009, published 2012).

In the assay the target is T1, human GPR119 (Homo sapiens, UniProt Q8TDV5).
T1 construct: expressed in transfected cells; host or cells: Flp-in T-Rex-293 cells (Invitrogen #R78007), plasmid pcDNA5/FRT/TO, expression induced with tetracycline
T1 sequence (Q8TDV5 1-335): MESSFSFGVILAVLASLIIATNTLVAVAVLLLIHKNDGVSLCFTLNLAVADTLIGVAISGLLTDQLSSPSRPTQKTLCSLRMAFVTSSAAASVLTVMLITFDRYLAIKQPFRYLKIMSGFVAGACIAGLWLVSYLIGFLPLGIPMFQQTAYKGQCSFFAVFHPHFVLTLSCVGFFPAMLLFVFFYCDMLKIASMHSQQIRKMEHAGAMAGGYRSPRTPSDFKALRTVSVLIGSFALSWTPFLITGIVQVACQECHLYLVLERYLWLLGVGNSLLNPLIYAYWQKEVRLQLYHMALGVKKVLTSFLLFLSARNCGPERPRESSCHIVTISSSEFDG
The assay is described as follows: Measurement of intracellular cAMP in stable cell line expressing human GPR119 (GPR119 agonist effect). In kind it is cell-based. Particulars: increase of intracellular cAMP, Flp-in T-Rex-293 cells expressing human GPR119, 37° C. for 30 minutes.
Excerpt: The GPR119 agonist effect is studied by measuring the effect of an analyte on increase of intracellular amount of cAMP in human GPR119 introduced cells. The testing method is described below.
Human GPR119 gene (NM 178471) is purchased from ATCC (ATCC No. 10807349), and is amplyfied according to PCR to form BamHI site at 5′ side and Apa I site at 3′ side. The primers are […] (sequence No. 1) and […] (sequence No. 2). The PCR conditions are described below.
The double-stranded DNA is thermally denatured using a DNA polymerase (KOD-Plus-Ver. 2; TOYOBO #KOD-211) at 98° C. for 10 seconds in one cycle. The denatured single-stranded DNA is annealed with the primers at 55° C. for 30 seconds. The DNA is subjected to an extension reaction at 68° C. for 1 minute and 15 seconds. The above-mentioned steps are repeated in 35 cycles. The PCR product is inserted into pcDNA5/FRT/TO (Invitrogen #V6520-20) plasmid. Flp-in T-Rex-293 cells (Invitorogen #R78007) are transfected with the obtained plasmid. The method of transfection is conducted in accordance with the protocol of the product.
(§1) The stable cell line expressing human GPR119 prepared in the above-mentioned method is plated on a 96-well plate at the concentration of 2,500 cells/well using Dulbecco's Modified Eagle Medium (DMEM) containing 10% fetal bovine serum (FBS). Twenty-four hours after plating, tetracyclin (Invitrogen #Q10019) is added at the final concentration of 20 ng/mL to induce hGPR119 gene expression. Twenty-four hours after, the medium is removed, and the cells are stimulated with an assay buffer (0.5 mM IBMX PBS (−)) containing the test compound at 37° C. for 30 minutes. The amount of the intracellular cAMP is measured using a commercially available kit (HitHunter™ cAMP XS+Assay: GE Healthcare #90007503) and a reader (FLUOstar Optima: BMG LABTECH). The test compound is dissolved in 100% DMSO, and added at the final concentration of 1%.
Human GPR119 gene (NM 178471) was purchased from ATCC (ATCC No. 10807349), and is amplyfied according to PCR to form BamHI site at 5′ side and Apa I site at 3′ side. The primers were […] (sequence No. 1) and […] (sequence No. 2). The PCR conditions are described below. The double-stranded DNA was thermally denatured using a DNA polymerase (KOD-Plus-Ver. 2; TOYOBO #KOD-211) at 98° C. for 10 seconds in one cycle. The denatured single-stranded DNA was annealed with the primers at 55° C. for 30 seconds. The DNA was subjected to an extension reaction at 68° C. for 1 minute and 15 seconds. The above-mentioned steps were repeated in 35 cycles. The PCR product was inserted into pcDNA5/FRT/TO (Invitrogen #V6520-20) plasmid. Flp-in T-Rex-293 cells (Invitorogen #R78007) were transfected with the obtained plasmid. The method of transfection was conducted in accordance with the protocol of the product.
as §1, with “method was” for “method is”, “#Q10019) was” for “#Q10019) is”, “medium was” for “medium is”, “cells were” for “cells are”, “cAMP was” for “cAMP is”, “compound was” for “compound is”
The examination was performed by the method similar to Example 87 Pharmacological experiment 1-(1), -(2).

What is called EC50 is the concentration at which the effect is half-maximal. Low values mean a more potent agent, high ones a less potent agent. Consider `Cc1cc(C2CCN(C(=O)OC(C)(C)C)CC2)cnc1Cn1ccc2cc(S(C)(=O)=O)ccc21` [Example 5, tert-Butyl 4-[2-(5-methanesulfonylindol-1-ylmethyl)-3-methylpyridin-5-yl]piperidine-1-carboxylate], for which the concentration for a half-maximal effect (EC50) was found to be 31.6 nM. With `CC(C)(C)OC(=O)N1CCC(c2ccc(-c3cc4cc(S(C)(=O)=O)ccc4o3)nc2)CC1` [Example 9, tert-Butyl 4-[2-(5-methanesulfonylbenzofuran-2-yl)pyridin-5-yl]piperidine-1-carboxylate] the figure was 420 nM. Turning to `CC(C)(C)OC(=O)N1CCC(c2ccc(Cn3ccc4cc(S(C)(=O)=O)cc(F)c43)nc2)CC1` [Example 11, tert-Butyl 4-[2-(7-fluoro-5-methanesulfonylindol-1-ylmethyl)pyridin-5-yl]piperidine-1-carboxylate], the concentration for a half-maximal effect (EC50) is 21.4 nM. With `CC(C)(C)OC(=O)N1CCC(c2cnc(Cn3ccc4cc(S(C)(=O)=O)ccc43)c(F)c2)CC1` [Example 13, tert-Butyl 4-[3-fluoro-2-(5-methanesulfonylindol-1-ylmethyl)pyridin-5-yl]piperidine-1-carboxylate] the figure was 36.3 nM.

In turn, `CC(C)(C)OC(=O)N1CCC(c2cnc(Cn3ccc4cc(S(C)(=O)=O)ccc43)c(Cl)c2)CC1` [Example 14, tert-Butyl 4-[3-chloro-2-(5-methanesulfonylindol-1-ylmethyl)pyridin-5-yl]piperidine-1-carboxylate] yielded an EC50 of 9.5 nM. This EC50 is about 3.8-fold lower than that of the molecule before. With `CC(C)c1nc(N2CCC(c3ccc(Cn4ccc5cc(S(C)(=O)=O)ccc54)nc3)CC2)no1` [Example 16, 5-Isopropyl-3-[4-[2-(5-methanesulfonylindol-1-ylmethyl)pyridin-5-yl]piperidin-1-yl]-[1,2,4]oxadiazole] the figure was 49.1 nM.

In turn, `CC(C)(C)OC(=O)N1CCC(c2ccc(Cn3ccc4cc(S(C)(=O)=O)cnc43)nc2)CC1` [Example 17, tert-Butyl 4-[2-(5-methanesulfonyl-1H-pyrrolo[2,3-b]pyridin-1-ylmethyl)pyridin-5-yl]piperidine-1-carboxylate] yielded an EC50 of 30.4 nM.

The molecule `CC(C)(C)OC(=O)N1CCC(c2ccc(Cn3ccc4cc(S(C)(=O)=O)cc([N+](=O)[O-])c43)nc2)CC1` [Example 18, tert-Butyl 4-[2-(5-methanesulfonyl-7-nitroindol-1-ylmethyl)pyridin-5-yl]piperidine-1-carboxylate] gave an EC50 of 25.6 nM.

Take `CC(C)(C)OC(=O)N1CCC(c2ccc(Cn3ccc4cc(S(C)(=O)=O)cc(N)c43)nc2)CC1` [Example 19, tert-Butyl 4-[2-(7-amino-5-methanesulfonylindol-1-ylmethyl)pyridin-5-yl]piperidine-1-carboxylate]: the EC50 was 181 nM.

Turning to `CC(C)(C)OC(=O)N1CCC(c2ccc(Cn3ccc4cc(-n5cnnn5)ccc43)nc2)CC1` [Example 20, tert-Butyl 4-[2-[5-(tetrazol-1-yl)indol-1-ylmethyl]pyridin-5-yl]piperidine-1-carboxylate], the EC50 turned out to be 18.5 nM. The figure for `CC(C)(C)OC(=O)N1CCC(c2ccc(Cn3ncc4cc(S(C)(=O)=O)ccc43)nc2)CC1` [Example 21, tert-Butyl 4-[2-(5-methanesulfonylindazol-1-ylmethyl)pyridin-5-yl]piperidine-1-carboxylate] is 428 nM; for `CC(C)(C)OC(=O)N1CCC(c2ccc(Cn3cc4cc(S(C)(=O)=O)ccc4n3)nc2)CC1` [Example 22, tert-Butyl 4-[2-(5-methanesulfonylindazol-2-ylmethyl)pyridin-5-yl]piperidine-1-carboxylate] it is 458 nM; for `CC(C)(C)OC(=O)N1CCC(c2ccc(Cn3ccc4c(F)c(S(C)(=O)=O)ccc43)nc2)CC1` [Example 23, tert-Butyl 4-[2-(4-fluoro-5-methanesulfonylindol-1-ylmethyl)pyridin-5-yl]piperidine-1-carboxylate] it is 51.3 nM. The figure for `CC(C)(C)OC(=O)N1CCC(c2ccc(CN3CCc4cc(S(C)(=O)=O)cc(F)c43)nc2)CC1` [Example 25, tert-Butyl 4-[2-(7-fluoro-5-methanesulfonylindolin-1-ylmethyl)pyridin-5-yl]piperidine-1-carboxylate] is 20.2 nM; for `Cc1cc(S(C)(=O)=O)cc2ccn(Cc3ccc(C4CCN(C(=O)OC(C)(C)C)CC4)cn3)c12` [Example 26, tert-Butyl 4-[2-(5-methanesulfonyl-7-methylindol-1-ylmethyl)pyridin-5-yl]piperidine-1-carboxylate] it is 59.3 nM; for `CC(C)(C)OC(=O)N1CCC(c2ccc(Cn3ccc4cc(S(C)(=O)=O)cc(Cl)c43)nc2)CC1` [Example 27, tert-Butyl 4-[2-(7-chloro-5-methanesulfonylindol-1-ylmethyl)pyridin-5-yl]piperidine-1-carboxylate] it is 13.9 nM.

Regarding `Cc1nc(S(C)(=O)=O)cc2ccn(Cc3ccc(C4CCN(C(=O)OC(C)(C)C)CC4)cn3)c12` [Example 28, tert-Butyl 4-[2-(5-methanesulfonyl-7-methyl-1H-pyrrolo[2,3-c]pyridin-1-ylmethyl)pyridin-5-yl]piperidine-1-carboxylate], a half-maximal effect (EC50) was put at 82.1 nM. This EC50 is about 5.9-fold higher than that of the molecule before. Regarding `CC(C)(C)OC(=O)N1CCC(c2ccc(Cn3ccc4cc(S(C)(=O)=O)ncc43)nc2)CC1` [Example 29, tert-Butyl 4-[2-(5-methanesulfonyl-1H-pyrrolo[2,3-c]pyridin-1-ylmethyl)pyridin-5-yl]piperidine-1-carboxylate], it took 39 nM to reach a half-maximal effect (EC50).

`CCc1cnc(N2CCC(c3ccc(Cn4ccc5cc(S(C)(=O)=O)ccc54)nc3)CC2)nc1` [Example 30, 5-Ethyl-2-[4-[2-(5-methanesulfonylindol-1-ylmethyl)pyridin-5-yl]piperidin-1-yl]pyrimidine]: the half-maximal effective concentration (EC50) is 11.7 nM. With `CC(C)(C)OC(=O)N1CCC(c2ccc(Cn3ccc4cc(S(C)(=O)=O)c(Cl)cc43)nc2)CC1` [Example 31, tert-Butyl 4-[2-(6-chloro-5-methanesulfonylindol-1-ylmethyl)pyridin-5-yl]piperidine-1-carboxylate] the figure was 41.1 nM.

`CCc1cnc(N2CCC(c3ccc(Cn4ccc5cc(S(C)(=O)=O)c(F)cc54)nc3)CC2)nc1` [Example 32, 5-Ethyl-2-[4-[2-(6-fluoro-5-methanesulfonylindol-1-ylmethyl)pyridin-5-yl]piperidin-1-yl]pyrimidine] yielded a concentration for a half-maximal effect (EC50) of 52 nM.

`CCc1cnc(N2CCC(c3ccc(Cn4ccc5cc(-n6cnnn6)ccc54)nc3)CC2)nc1` [Example 33, 5-Ethyl-2-[4-[2-[5-(tetrazol-1-yl)indol-1-ylmethyl]pyridin-5-yl]piperidin-1-yl]pyrimidine] returned a 50% effective concentration (EC50) of 15.5 nM.
